# Data taken from patent US10130585B2, “Methods of treating and/or preventing cardiovascular disease” (Murray and Poole Enterprises Limited, priority 2013, dated 2018).
# Key:
# [1] = tested on: patients with a first episode of recurrent pericarditis; conditions: conventional treatment with aspirin plus colchicine 1.0-2.0 mg first day then 0.5-1.0 mg/d for 6 months; cited from earlier work
# [2] = tested on: patients with stable coronary disease; experiment: LoDoCo Trial, colchicine 0.5 mg/day added to standard secondary prevention; format: in vivo, human
# Experimental: This study is described in PCT/AU2013/001261 and is hereby incorporated in its entirety by reference.
# All outcomes were evaluated by an experienced adjudicator blinded to the treatment allocation.
# Patients with a history of bypass surgery were only eligible if they had undergone bypass surgery more than 10 years before, or had angiographic evidence of graft failure or had undergone stenting since their bypass surgery. All patients signed informed consent before randomization.
# The randomization sequence was computer generated, kept concealed from the investigators at all times and was managed by a research assistant who had no involvement in the evaluation or management of study patients. Once the assistant received the consent form, the patients' demographic data were entered into the data base and the investigators and patients were advised in writing of the treatment group to which the patient had been assigned. […] Patients who were intolerant to therapy remained in the study, and were followed in the usual manner and included in the primary intention to treat analysis.
# The drug was dispensed by their usual chemist, and if requested, patients were reimbursed for the cost of these scripts. All other treatments were continued as usual.
# Patient compliance with treatment and outcome data were collected at routine follow up visits and at the time of any unplanned hospital admission. An acute coronary syndrome (ACS) was defined as either (a) Acute Myocardial Infarction (AMI), as evidenced by acute ischemic chest pain associated with a rise in serum troponin above the upper limit of normal or (b) Unstable Angina (UA), as evidenced by a recent acceleration of the patient's angina unassociated with a rise in serum troponin but associated with angiographic evidence of a change in the patient's coronary anatomy. (Unstable Angina Braunwald classification types IB and IIB). The ACS was characterized as being stent-related if there was evidence of significant in-stent stenosis or acute stent thrombosis. Out of Hospital Cardiac Arrest was defined as either a sudden death as evidenced on the patient's death certificate, or a non-fatal out of hospital cardiac arrest, defined as a recovery from sudden collapse associated with documented asystole, ventricular tachycardia or ventricular fibrillation. Noncardioembolic ischemic stroke was defined as CT or MRI proven ischemic stroke adjudged by the treating neurologist as not being due to atrial fibrillation or intracranial hemorrhage.
# The primary efficacy outcome was the composite, ACS, fatal or non-fatal out of hospital cardiac arrest or non-cardio-embolic ischemic stroke. Secondary outcomes were (a) individual components of the primary outcome, and (b) the components of ACS unrelated to stent disease.
# The pre-specified study duration was a minimum follow up of two years in all patients. Accordingly the study was closed on May 31, 2012. During May, all living patients were contacted by phone to collect compliance and outcome data from the last date of follow-up. Final outcome data were available in all patients and no patients were lost to follow up.
# Summary statistics, including mean and standard deviation were calculated for all baseline characteristics by treatment arm. All time to event outcomes were calculated in days by subtracting the date of randomization from either: (1) the date of event or death; or (2) the trial termination date for those patients not experiencing the defined event. […]
structure (smiles),measurement,setting,value
"COc1cc2c(c(OC)c1OC)-c1ccc(OC)c(=O)cc1[C@@H](NC(C)=O)CC2 [colchicine, N[5,6,7,9-tetrahydro-1,2,3,10-tetratmethoxy 9-oxobenzo[a]heptalen-7-yl],(S)-acetamide]","recurrence rate, actuarial rate at 18 months",[1],24.0%
same,"number needed to treat, primary outcome",[2]; colchicine 0.5 mg/day vs control,11
same,patients who died,"[2]; colchicine group (n=282), all of non-cardiac causes",4 patients
same,patients reporting early intolerance due to gastrointestinal side effects,[2]; of 282 randomized to colchicine 0.5 mg/day,11%
same,"patients with events, on-treatment analysis",[2]; patients compliant and tolerant to therapy beyond the first month,4.5%
same,Out of hospital cardiac arrest and non-cardio-embolic ischemic stroke,[2]; treatment group vs control,also reduced in the treatment group
